Oligonucleotides are written 5' to 3', each unit as a sugar letter and its base; * is a phosphorothioate linkage, no mark a phosphodiester; rarer units and linkages stand in square brackets, end groups in braces. Plain capitals give the bases only. k = constrained ethyl (cEt); [5mC] = 5-methylcytosine; d = 2'-deoxy (DNA)
What was measured:
AR mRNA [1] = assay: AR mRNA in LnCaP cells by free uptake (hAR_LTS00943); format: cell-based, human; conditions: 24 hrs
Experimental: Cells were plated at a concentration of 4,000 cells/well in 96-well plates. ISIS oligonucleotides, specified in Table 68, were added individually at 0.02 μM, 0.10 μM, 0.50 μM, 2.50 μM, or 10.00 μM. After an incubation period of 24 hrs, mRNA levels were measured using primer probe set hAR_LTS00943.

AR mRNA [2] = assay: Dose-dependent antisense inhibition of human AR in HuVEC cells (electroporation, qRT-PCR RTS3559, IC50); format: cell-based
Outline: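 HuVEC cells dosed with antisense oligonucleotides by electroporation and treated approximately 16 hours. AR mRNA quantified by real-time qPCR with primer probe set RTS3559 and normalised to total RNA by RIBOGREEN; IC50 from dose-response.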

“549372 (kA*kA*kG*dT*dT*dG*dT*dA*dG*dT*dA*dG*dT*k[5mC]*kG*k[5mC]) [compound 549372]” was tested, and the “Percent inhibition of AR mRNA” value (AR mRNA [1]; 0.02 μM) was 0%, the “Percent inhibition of AR mRNA” value (AR mRNA [1]; 0.1 μM) was 0% and the “Percent inhibition of AR mRNA” value (AR mRNA [1]; 0.5 μM) was 21%. For the same substance, the “Percent inhibition of AR mRNA” value (AR mRNA [1]; 10 μM) was 78%, the “percent inhibition of AR” value (AR mRNA [2]; 31.25 nM, HuVEC, ~16 h, Table 14) was 2% and the “percent inhibition of AR” value (AR mRNA [2]; 46.9 nM, HuVEC, ~16 h, Table 15) was 9%. For the same substance, the “percent inhibition of AR” value (AR mRNA [2]; 55.6 nM, HuVEC, ~16 h, Table 3) was 22%, the “percent inhibition of AR” value (AR mRNA [2]; 62.5 nM, HuVEC, ~16 h, Table 14) was 17% and the “percent inhibition of AR” value (AR mRNA [2]; 125.0 nM, HuVEC, ~16 h, Table 14) was 31%. The “percent inhibition of AR” value (AR mRNA [2]; 166.7 nM, HuVEC, ~16 h, Table 3) was 51%, the “percent inhibition of AR” value (AR mRNA [2]; 187.5 nM, HuVEC, ~16 h, Table 15) was 41% and the “percent inhibition of AR” value (AR mRNA [2]; 500.0 nM, HuVEC, ~16 h, Table 3) was 85%. The “percent inhibition of AR” value (AR mRNA [2]; 500.0 nM, HuVEC, ~16 h, Table 14) was 61%, the “percent inhibition of AR” value (AR mRNA [2]; 750.0 nM, HuVEC, ~16 h, Table 15) was 66% and the “percent inhibition of AR” value (AR mRNA [2]; 1000.0 nM, HuVEC, ~16 h, Table 14) was 80%. The “percent inhibition of AR” value (AR mRNA [2]; 1500.0 nM, HuVEC, ~16 h, Table 3) was 89%, the “percent inhibition of AR” value (AR mRNA [2]; 3000.0 nM, HuVEC, ~16 h, Table 15) was 87% and the IC50 (AR mRNA [2]; HuVEC cells, electroporation) was 290 nM. The “inhibition of AR mRNA at 46.9 nM” value (AR mRNA [2]; HuVEC cells, electroporation, 46.9 nM ASO) was 9%, the “inhibition of AR mRNA at 187.5 nM” value (AR mRNA [2]; HuVEC cells, electroporation, 187.5 nM ASO) was 41% and the “inhibition of AR mRNA at 750.0 nM” value (AR mRNA [2]; HuVEC cells, electroporation, 750.0 nM ASO) was 66%. The “inhibition of AR mRNA at 3000.0 nM” value (AR mRNA [2]; HuVEC cells, electroporation, 3000.0 nM ASO) was 87%, the IC50 (AR mRNA [2]; HuVEC, ~16 h, Table 3) was 150 nM and the IC50 (AR mRNA [2]; HuVEC, ~16 h, Table 14) was 271 nM. The IC50 (AR mRNA [2]; HuVEC, ~16 h, Table 15) was 290 nM, the “percent inhibition of AR, 46.9 nM” value (AR mRNA [2]; Table 29, 46.9 nM, HuVEC, electroporation, approximately 16 hours) was 7% and the “percent inhibition of AR, 187.5 nM” value (AR mRNA [2]; Table 29, 187.5 nM, HuVEC, electroporation, approximately 16 hours) was 41%. The “percent inhibition of AR, 750.0 nM” value (AR mRNA [2]; Table 29, 750.0 nM, HuVEC, electroporation, approximately 16 hours) was 70%, the “percent inhibition of AR, 3000.0 nM” value (AR mRNA [2]; Table 29, 3000.0 nM, HuVEC, electroporation, approximately 16 hours) was 91% and the IC50 (AR mRNA [2]; Table 29, HuVEC, electroporation, approximately 16 hours) was 320 nM. For the same substance, the “percent inhibition of AR, 46.9 nM” value (AR mRNA [2]; Table 30, 46.9 nM, HuVEC, electroporation, approximately 16 hours) was 13%, the “percent inhibition of AR, 187.5 nM” value (AR mRNA [2]; Table 30, 187.5 nM, HuVEC, electroporation, approximately 16 hours) was 29% and the “percent inhibition of AR, 750.0 nM” value (AR mRNA [2]; Table 30, 750.0 nM, HuVEC, electroporation, approximately 16 hours) was 69%. For the same substance, the “percent inhibition of AR, 3000.0 nM” value (AR mRNA [2]; Table 30, 3000.0 nM, HuVEC, electroporation, approximately 16 hours) was 90%, the IC50 (AR mRNA [2]; Table 30, HuVEC, electroporation, approximately 16 hours) was 370 nM and the “percent inhibition of AR, 46.9 nM” value (AR mRNA [2]; Table 31, 46.9 nM, HuVEC, electroporation, approximately 16 hours) was 5%. For the same substance, the “percent inhibition of AR, 187.5 nM” value (AR mRNA [2]; Table 31, 187.5 nM, HuVEC, electroporation, approximately 16 hours) was 36%, the “percent inhibition of AR, 750.0 nM” value (AR mRNA [2]; Table 31, 750.0 nM, HuVEC, electroporation, approximately 16 hours) was 69% and the “percent inhibition of AR, 3000.0 nM” value (AR mRNA [2]; Table 31, 3000.0 nM, HuVEC, electroporation, approximately 16 hours) was 88%. The IC50 (AR mRNA [2]; Table 31, HuVEC, electroporation, approximately 16 hours) was 360 nM, the “percent inhibition of AR, 46.9 nM” value (AR mRNA [2]; Table 32, 46.9 nM, HuVEC, electroporation, approximately 16 hours) was 15% and the “percent inhibition of AR, 187.5 nM” value (AR mRNA [2]; Table 32, 187.5 nM, HuVEC, electroporation, approximately 16 hours) was 39%. For the same substance, the “percent inhibition of AR, 750.0 nM” value (AR mRNA [2]; Table 32, 750.0 nM, HuVEC, electroporation, approximately 16 hours) was 70%, the “percent inhibition of AR, 3000.0 nM” value (AR mRNA [2]; Table 32, 3000.0 nM, HuVEC, electroporation, approximately 16 hours) was 86% and the IC50 (AR mRNA [2]; Table 32, HuVEC, electroporation, approximately 16 hours) was 300 nM. For the same substance, the “percent inhibition of AR, 46.9 nM” value (AR mRNA [2]; Table 33, 46.9 nM, HuVEC, electroporation, approximately 16 hours) was 14%, the “percent inhibition of AR, 187.5 nM” value (AR mRNA [2]; Table 33, 187.5 nM, HuVEC, electroporation, approximately 16 hours) was 33% and the “percent inhibition of AR, 750.0 nM” value (AR mRNA [2]; Table 33, 750.0 nM, HuVEC, electroporation, approximately 16 hours) was 64%. The “percent inhibition of AR, 3000.0 nM” value (AR mRNA [2]; Table 33, 3000.0 nM, HuVEC, electroporation, approximately 16 hours) was 90%, the IC50 (AR mRNA [2]; Table 33, HuVEC, electroporation, approximately 16 hours) was 340 nM and the “percent inhibition of AR, 46.9 nM” value (AR mRNA [2]; Table 34, 46.9 nM, HuVEC, electroporation, approximately 16 hours) was 14%. For the same substance, the “percent inhibition of AR, 187.5 nM” value (AR mRNA [2]; Table 34, 187.5 nM, HuVEC, electroporation, approximately 16 hours) was 36%, the “percent inhibition of AR, 750.0 nM” value (AR mRNA [2]; Table 34, 750.0 nM, HuVEC, electroporation, approximately 16 hours) was 64% and the “percent inhibition of AR, 3000.0 nM” value (AR mRNA [2]; Table 34, 3000.0 nM, HuVEC, electroporation, approximately 16 hours) was 88%. For the same substance, the IC50 (AR mRNA [2]; Table 34, HuVEC, electroporation, approximately 16 hours) was 320 nM, the “percent inhibition of AR, 46.9 nM” value (AR mRNA [2]; Table 35, 46.9 nM, HuVEC, electroporation, approximately 16 hours) was 0% and the “percent inhibition of AR, 187.5 nM” value (AR mRNA [2]; Table 35, 187.5 nM, HuVEC, electroporation, approximately 16 hours) was 28%. The “percent inhibition of AR, 750.0 nM” value (AR mRNA [2]; Table 35, 750.0 nM, HuVEC, electroporation, approximately 16 hours) was 64%, the “percent inhibition of AR, 3000.0 nM” value (AR mRNA [2]; Table 35, 3000.0 nM, HuVEC, electroporation, approximately 16 hours) was 88% and the IC50 (AR mRNA [2]; Table 35, HuVEC, electroporation, approximately 16 hours) was 420 nM. For the same substance, the “percent inhibition of AR, 46.9 nM” value (AR mRNA [2]; Table 36, 46.9 nM, HuVEC, electroporation, approximately 16 hours) was 2%, the “percent inhibition of AR, 187.5 nM” value (AR mRNA [2]; Table 36, 187.5 nM, HuVEC, electroporation, approximately 16 hours) was 26% and the “percent inhibition of AR, 750.0 nM” value (AR mRNA [2]; Table 36, 750.0 nM, HuVEC, electroporation, approximately 16 hours) was 61%. For the same substance, the “percent inhibition of AR, 3000.0 nM” value (AR mRNA [2]; Table 36, 3000.0 nM, HuVEC, electroporation, approximately 16 hours) was 85% and the IC50 (AR mRNA [2]; Table 36, HuVEC, electroporation, approximately 16 hours) was 420 nM.
